Source: paper doi:10.1101/2025.03.04.641560v1 (biorxiv, 2025)
Like-named read-outs stand apart in the source and are kept apart here.

Columns and labels:
Td2F2 [1] = conditions: 10 mM HEPES pH 7.4; Mutant A
Td2F2 [2] = experiment: fluorescence plate reader, Michaelis-Menten fit; assay type: biochemical, uncultured bacterium; conditions: 10 mM HEPES pH 7.4
β-galactosidase (LacZ) = β-galactosidase (LacZ) (Escherichia coli, UniProt P00722); experiment: fluorescence plate reader, Michaelis-Menten fit; assay type: biochemical; conditions: 10 mM HEPES pH 7.4
Chain of β-galactosidase (LacZ) (P00722 2-1024): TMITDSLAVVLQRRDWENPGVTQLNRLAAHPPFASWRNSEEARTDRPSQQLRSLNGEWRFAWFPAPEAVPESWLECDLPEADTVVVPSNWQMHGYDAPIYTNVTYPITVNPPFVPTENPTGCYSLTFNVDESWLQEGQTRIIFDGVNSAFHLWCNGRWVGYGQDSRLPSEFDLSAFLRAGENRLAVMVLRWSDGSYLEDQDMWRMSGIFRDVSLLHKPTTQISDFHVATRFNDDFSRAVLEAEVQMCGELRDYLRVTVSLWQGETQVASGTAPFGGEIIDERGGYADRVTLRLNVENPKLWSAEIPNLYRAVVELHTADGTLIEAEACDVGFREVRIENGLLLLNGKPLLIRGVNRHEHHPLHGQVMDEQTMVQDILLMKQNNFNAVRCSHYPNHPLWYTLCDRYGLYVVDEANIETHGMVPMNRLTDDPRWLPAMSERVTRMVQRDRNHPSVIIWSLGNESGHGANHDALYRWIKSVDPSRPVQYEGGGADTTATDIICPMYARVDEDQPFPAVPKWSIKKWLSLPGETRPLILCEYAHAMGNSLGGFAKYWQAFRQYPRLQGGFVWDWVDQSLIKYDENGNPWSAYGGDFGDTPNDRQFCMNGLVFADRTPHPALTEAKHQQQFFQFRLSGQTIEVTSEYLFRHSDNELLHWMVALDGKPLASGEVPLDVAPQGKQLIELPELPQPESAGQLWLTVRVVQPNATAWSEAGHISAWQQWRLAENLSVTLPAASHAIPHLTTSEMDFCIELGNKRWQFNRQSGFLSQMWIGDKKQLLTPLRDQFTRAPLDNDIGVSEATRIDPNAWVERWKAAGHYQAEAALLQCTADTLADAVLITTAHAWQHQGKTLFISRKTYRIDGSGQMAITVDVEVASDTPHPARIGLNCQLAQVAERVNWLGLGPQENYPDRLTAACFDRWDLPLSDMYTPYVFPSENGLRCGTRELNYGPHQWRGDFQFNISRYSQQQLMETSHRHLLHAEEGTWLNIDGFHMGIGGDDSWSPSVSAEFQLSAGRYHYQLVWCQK

C[C@H]1O[C@@H](Oc2ccc3c(c2)Oc2cc(NCC(F)(F)F)ccc2C32OCc3ccccc32)[C@H](O)[C@@H](O)[C@H]1O (stereo partly drawn) [HMRef-β-D-Fuc, HMRef-β-D-fucose]
Km (Td2F2 [1]): 3.7 µM | Km (Td2F2 [2]): 190 µM

OC[C@H]1O[C@@H](Oc2ccc3c(c2)Oc2cc(NCC(F)(F)F)ccc2C32OCc3ccccc32)[C@H](O)[C@@H](O)[C@H]1O (stereo partly drawn) [HMRef-β-D-Gal]
Km (β-galactosidase (LacZ)): 73 µM
